In patent US20260345798A1, “COMPOUNDS AND METHODS OF USE THEREOF” (Virginia Commonwealth University, priority 2023, published 2026):
Residues, ends and D or L forms follow the SMILES beside them.

How the values were obtained:
MDA-9/Syntenin [1] = assay: MDA-9/Syntenin protein expression; format: cell-based
IL-6, IL-10, IL-16 [2] = assay: IL-6, IL-10, IL-16 mRNA by semiquantitative RT-PCR, murine melanoma cells; format: cell-based, mouse; settings: murine melanoma cells (B16)
Experimental: (§1) FIG. 14 is a series of histograms showing the IL-6, IL-10, and IL-16 mRNA fold change in RNA lysates prepared from A-375, C8161.9, and B16 cells treated with IVMT-Rx-3 at varying concentrations as indicated.
(§2) Total cellular RNA was extracted using an RNAeasy kit (Qiagen, Germany) as described previously (8,9). All Taqman probes used in this study were obtained from Applied Biosystems (Applied Biosystems, Foster City, CA). Real time PCR was performed using an ABI ViiA7 fast real-time PCR system (Applied Biosystems, Foster City, CA).

MMP-2 and MMP-9 [3] = assay: Gelatin zymography of conditioned media; format: cell-based, human; settings: A-375 and C8161.9 cells, 10, 25, 50 μM, 24 hrs
Experimental: FIG. 5B is images of zymography assays of MMP-2 and MMP-9 activity in A-375, C8161.9 cells treated with IVMT-Rx-3 at varying doses, and histograms showing the calculated intensity from the zymography assays. *: Statistical significance (p<0.05).
Tumor cells were treated with different doses of IVMT-Rx-3 (10, 25, and 50 μM) for 24 hrs. The cells were then cultured in serum-free medium overnight. Conditioned media (serum free media) collected on the next day was quantified and equal amounts of protein were run in a 7.5% SDS-polyacrylamide gel electrophoresis containing 1.5 mg/mL gelatin. The gels were washed vigorously with shaking 3×in 2.5% Triton X-100 solution to remove the SDS. The gel was then placed in the developing buffer [50 mM/L Tris-HCl (pH 7.5), 0.05% NaN3, 5 mM/L CaCl2), and 1 μM/L ZnCl2] 37 °C overnight. Lastly, the gels were stained with Amido black in 10% acetic acid followed by de-staining for 1 hr. MMP activities as observed through gelatinolysis were measured as clear zones of white strips against a blue background (21).

A-375 and C8161.9 cells = assay: Boyden chamber invasion assay, comparison with PDZ1i; format: cell-based, human; settings: 25 μM each
Experimental: FIG. 11A is a series of photomicrographs taken at 10× magnification showing invasion assays of A-375 cells treated with DMSO vehicle, 25 μM PDZ1i, or 25 μM IVMT-Rx-3, as well as histograms showing quantification of the average percent invasion of three independent experiments±standard deviation. *: Statistical significance (p<0.05).
FIG. 11B is a series of photomicrographs taken at 10× magnification showing invasion assays of C8161.9 cells treated with DMSO vehicle, 25 μM PDZ1i, or 25 μM IVMT-Rx-3 in C8161.9 melanoma cells, as well as histograms showing quantification of the average percent invasion of three independent experiments±standard deviation. *: Statistical significance (p<0.05).
Invasive phenotype was measured using a Boyden Chamber Assay as described previously (6,8,18). Briefly, 25,000 cells were plated on the upper chamber of the trans well in FBS free media and allowed to invade the Matrigel layer towards the bottom chamber supplemented with complete media. Twenty-four hr. after plating, the invaded cells were fixed and counted under a bright field microscope.

[4] = system: X11/mint scaffold protein; assay: Binding to other PDZ domains: X11/mint; settings: 33% identity with PDZ1
MDA-9/Syntenin [5] = biological target: T1, MDA-9/Syntenin (Homo sapiens, UniProt O00560); assay: NMR titration / ITC binding and HSQC mapping
T1 sequence (O00560 1-298): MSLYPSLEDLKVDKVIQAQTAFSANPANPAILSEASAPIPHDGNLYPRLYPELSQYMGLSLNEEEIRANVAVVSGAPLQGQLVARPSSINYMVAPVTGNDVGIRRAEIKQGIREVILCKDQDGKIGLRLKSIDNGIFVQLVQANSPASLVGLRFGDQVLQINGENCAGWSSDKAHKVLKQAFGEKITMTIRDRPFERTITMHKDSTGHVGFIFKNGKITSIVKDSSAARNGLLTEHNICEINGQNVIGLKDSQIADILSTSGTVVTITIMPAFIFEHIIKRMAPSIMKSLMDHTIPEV

IL-6, IL-10, IL-16 [6] = assay: IL-6, IL-10, IL-16 mRNA by semiquantitative RT-PCR, human melanoma cells; format: cell-based; settings: human melanoma cells (A-375, C8161.9)
Experimental: as §1, §2

MMP-2 and MMP-9 [7] = assay: MMP-2 and MMP-9 mRNA by qPCR, B16 cells; format: cell-based; settings: B16 mouse melanoma cells
Experimental: FIG. 13C is a series of histograms showing the MMP-2 and MMP-9 mRNA fold change in the cells treated as described in FIG. 13A, as determined by qPCR. *: Statistical significance (p<0.05).
as §2

[8] = system: primary normal human epidermal melanocytes (NHEM); assay: MTT and colony formation assays in normal human melanocytes; format: cell-based
Experimental: FIG. 2A is a histogram showing the results of an MTT assay of normal human melanocytes treated with varying concentrations of IVMT-Rx-3.
FIG. 2B is a histogram showing the results of a colony formation assay of normal human melanocytes treated with varying concentrations of IVMT-Rx-3. Two-hundred cells were plated on 60-mm dishes, treated with IVMT-Rx-3 at different doses. Every third day, culture media was replaced with fresh IVMT-Rx-3-containing media. After two weeks, colonies were stained, counted and graphs plotted.
(§3) The effect of IVMT-Rx-3 on primary normal human epidermal melanocyte cell growth and survival was determined after short term (24 hr., growth assays) (FIG. 2A) and long-term exposure (3-week, clonal assays) (FIG. 2B).

[9] = system: human melanoma cells (established and early passage patient-derived); assay: Proliferation / colony formation of human melanoma cells; format: cell-based; settings: 10 to 50 μM
Source text: FIG. 2C is a series of images showing colony formation assays of established human melanoma and patient-derived early passage human melanoma cells treated with IVMT-Rx-3.
FIG. 2D is a series of histograms showing the number of colonies/plate in the colony formation assays described in FIG. 2C. NS: Not statistically significant; Statistically significant p<0.05.
FIG. 2E is a series of histograms showing the number of colonies/plate in colony formation assays of patient-derived early passage human melanoma cells treated with IVMT-Rx-3. NS: Not statistically significant; Statistically significant p<0.05.
as §3

SMILES: Cc1cc(NC(=O)c2nc3[nH]c4c(c(=O)n3n2)CCC4)c(C)cc1NC(=O)CCOCCC(=O)N[C@H](C(=O)N[C@@H](CC(N)=O)C(=O)N[C@@H](CCC(=O)O)C(=O)N[C@@H](Cc1ccc(O)cc1)C(=O)N[C@@H](Cc1ccc(O)cc1)C(=O)N[C@H](C(=O)O)C(C)C)[C@@H](C)O [IVMT-Rx-3] (HELM PEPTIDE1{[Cc1cc(NC(=O)c2nc3[nH]c4c(c(=O)n3n2)CCC4)c(C)cc1NC(=O)CCOCCC(=O)[*:2]].T.N.E.Y.Y.V}$$$$V2.0)
- effect on MDA-9/Syntenin protein expression (MDA-9/Syntenin [1]): does not affect MDA-9/Syntenin protein expression
- IL-6, IL-10, IL-16 expression (IL-6, IL-10, IL-16 [2]): Down-regulation
- MMP activity (zymography) (MMP-2 and MMP-9 [3]): lower activity in treated cells
- anti-invasive efficacy in comparison with PDZ1i (A-375 and C8161.9 cells): significantly enhanced the anti-invasive efficacy in comparison with PDZ1i
- binding to X11/mint scaffold protein [4]: did not bind appreciably
- Kd (MDA-9/Syntenin [5]; ITC, fitted to a single binding event, NMR titration provides similar values, read-out: overall dissociation constant of the complex, Kd): < 1 µM
- induction of chemical shifts (NMR mapping) (MDA-9/Syntenin [5]; NMR mapping studies): induces chemical shifts in both domains
- perturbation of Met201 (PDZ2) and Met188 (PDZ1) (MDA-9/Syntenin [5]; [13C,1H]-HSQC, 20 μM 13C-Met-labeled MDA-9/Syntenin, 40 μM compound): both clearly perturbed
- IL-6, IL-10, IL-16 expression (IL-6, IL-10, IL-16 [6]): Down-regulation
- expression of MMP-2 and MMP-9 (MMP-2 and MMP-9 [7]): lower expression of MMP-2 and MMP-9
- effect on cell proliferation on repeated treatment ([8]; 50 μM, repeated treatment, FIG. 2A and 2B): did not show any effect on cell proliferation
- toxicity in primary melanocytes ([8]; 50 μM, 24 hr growth assay and 3-week clonal assay): No significant toxicity
- toxicity in early passage normal human melanocytes ([8]; summary statement): without provoking toxicity
- effect on cell proliferation in NHEM (MTT assay) ([8]; varying concentrations, FIG. 2A): lack of effect
- inhibition of proliferation or long-term survival [9]: did not inhibit proliferation or long-term survival
